Patent US20250215011A1, “T-TYPE CALCIUM CHANNEL MODULATORS COMPRISING A DIAZASPIROHEPTANE CORE AND METHODS OF USE THEREOF” (Praxis Precision Medicines, Inc., priority 2022, published 2025)

biological target: Human Cav3.1 (Homo sapiens (Human), UniProt O43497); experiment: Cav3.1 automated patch clamp assay (SyncroPatch 384PE), HEK-293 natClytin/TASK1+Cav3.1 cell line; format: cell-based; details: Table 1, HEK-293 natClytin/TASK1+Cav3.1 cells
Procedure: Inhibition of the T-type voltage gated calcium channel (Cav3.1) was evaluated using a HEK-293 natClytin/TASK1+Cav3.1 cell line. Currents were recorded using the SyncroPatch 384PE automated, patch clamp system. Pulse generation and data collection were performed with PatchController384 V1.3.0 and DataController384 V1.2.1 (Nanion Technologies). Off-line analysis was performed using Excel and Graphpad Prism (V 8.4.2) with complete data files uploaded to Dotmatics. The access resistance and apparent membrane capacitance were estimated using built-in protocols. Current was recorded in whole cell configuration from a population of cells. The cells were lifted, triturated, and resuspended at 800,000 cells/ml. The cells were allowed to recover in the cell hotel prior to experimentation. Currents were recorded at room temperature. The external solution contained the following (in mM): NaCl 80, NMDG 60, KCl 4, MgCl2 1, CaCl2 6, glucose 5 and HEPES 10 (pH=7.4, Osmolarity ˜300 mOsm). The extracellular solution was used as the wash, reference and compound delivery solution. The internal solution contained the following (in mM): CsF 110, CsCl 10, NaCl 10, EGTA 10, HEPES 10 (pH=7.2, Osmolarity ˜295 mOsm). The compound plate was created at 2× concentrated in the extracellular solution. The compound was diluted to 1:2 when added to the recording well. The amount of […] in the extracellular solution was held constant at the level used for the highest tested concentration. For the voltage clamp experiments on Cav3.1, data were sampled at 10 KHz. After establishment of the seal and the passage in the whole cell configuration, the cells were held at −120 mV. Cav3.1 current was evoked using a 100 ms step to −20 mV (to measure resting state block), followed by a 1600 ms step to −65 mV and a second 100 ms step to −20 mV (to measure voltage dependent block). The voltage protocol was applied every 15 seconds in the absence and in the presence of the compounds under investigation. […] Current amplitude (pA) was measured in the peak 1 and 2. The average of last 3 sweeps of each liquid period (vehicle, compound under investigation, full block) was calculated. Nickel-sensitive current was used to calculate the % of inhibition in the presence of the compound under investigation.

Sequence of Human Cav3.1 (O43497 whole entry): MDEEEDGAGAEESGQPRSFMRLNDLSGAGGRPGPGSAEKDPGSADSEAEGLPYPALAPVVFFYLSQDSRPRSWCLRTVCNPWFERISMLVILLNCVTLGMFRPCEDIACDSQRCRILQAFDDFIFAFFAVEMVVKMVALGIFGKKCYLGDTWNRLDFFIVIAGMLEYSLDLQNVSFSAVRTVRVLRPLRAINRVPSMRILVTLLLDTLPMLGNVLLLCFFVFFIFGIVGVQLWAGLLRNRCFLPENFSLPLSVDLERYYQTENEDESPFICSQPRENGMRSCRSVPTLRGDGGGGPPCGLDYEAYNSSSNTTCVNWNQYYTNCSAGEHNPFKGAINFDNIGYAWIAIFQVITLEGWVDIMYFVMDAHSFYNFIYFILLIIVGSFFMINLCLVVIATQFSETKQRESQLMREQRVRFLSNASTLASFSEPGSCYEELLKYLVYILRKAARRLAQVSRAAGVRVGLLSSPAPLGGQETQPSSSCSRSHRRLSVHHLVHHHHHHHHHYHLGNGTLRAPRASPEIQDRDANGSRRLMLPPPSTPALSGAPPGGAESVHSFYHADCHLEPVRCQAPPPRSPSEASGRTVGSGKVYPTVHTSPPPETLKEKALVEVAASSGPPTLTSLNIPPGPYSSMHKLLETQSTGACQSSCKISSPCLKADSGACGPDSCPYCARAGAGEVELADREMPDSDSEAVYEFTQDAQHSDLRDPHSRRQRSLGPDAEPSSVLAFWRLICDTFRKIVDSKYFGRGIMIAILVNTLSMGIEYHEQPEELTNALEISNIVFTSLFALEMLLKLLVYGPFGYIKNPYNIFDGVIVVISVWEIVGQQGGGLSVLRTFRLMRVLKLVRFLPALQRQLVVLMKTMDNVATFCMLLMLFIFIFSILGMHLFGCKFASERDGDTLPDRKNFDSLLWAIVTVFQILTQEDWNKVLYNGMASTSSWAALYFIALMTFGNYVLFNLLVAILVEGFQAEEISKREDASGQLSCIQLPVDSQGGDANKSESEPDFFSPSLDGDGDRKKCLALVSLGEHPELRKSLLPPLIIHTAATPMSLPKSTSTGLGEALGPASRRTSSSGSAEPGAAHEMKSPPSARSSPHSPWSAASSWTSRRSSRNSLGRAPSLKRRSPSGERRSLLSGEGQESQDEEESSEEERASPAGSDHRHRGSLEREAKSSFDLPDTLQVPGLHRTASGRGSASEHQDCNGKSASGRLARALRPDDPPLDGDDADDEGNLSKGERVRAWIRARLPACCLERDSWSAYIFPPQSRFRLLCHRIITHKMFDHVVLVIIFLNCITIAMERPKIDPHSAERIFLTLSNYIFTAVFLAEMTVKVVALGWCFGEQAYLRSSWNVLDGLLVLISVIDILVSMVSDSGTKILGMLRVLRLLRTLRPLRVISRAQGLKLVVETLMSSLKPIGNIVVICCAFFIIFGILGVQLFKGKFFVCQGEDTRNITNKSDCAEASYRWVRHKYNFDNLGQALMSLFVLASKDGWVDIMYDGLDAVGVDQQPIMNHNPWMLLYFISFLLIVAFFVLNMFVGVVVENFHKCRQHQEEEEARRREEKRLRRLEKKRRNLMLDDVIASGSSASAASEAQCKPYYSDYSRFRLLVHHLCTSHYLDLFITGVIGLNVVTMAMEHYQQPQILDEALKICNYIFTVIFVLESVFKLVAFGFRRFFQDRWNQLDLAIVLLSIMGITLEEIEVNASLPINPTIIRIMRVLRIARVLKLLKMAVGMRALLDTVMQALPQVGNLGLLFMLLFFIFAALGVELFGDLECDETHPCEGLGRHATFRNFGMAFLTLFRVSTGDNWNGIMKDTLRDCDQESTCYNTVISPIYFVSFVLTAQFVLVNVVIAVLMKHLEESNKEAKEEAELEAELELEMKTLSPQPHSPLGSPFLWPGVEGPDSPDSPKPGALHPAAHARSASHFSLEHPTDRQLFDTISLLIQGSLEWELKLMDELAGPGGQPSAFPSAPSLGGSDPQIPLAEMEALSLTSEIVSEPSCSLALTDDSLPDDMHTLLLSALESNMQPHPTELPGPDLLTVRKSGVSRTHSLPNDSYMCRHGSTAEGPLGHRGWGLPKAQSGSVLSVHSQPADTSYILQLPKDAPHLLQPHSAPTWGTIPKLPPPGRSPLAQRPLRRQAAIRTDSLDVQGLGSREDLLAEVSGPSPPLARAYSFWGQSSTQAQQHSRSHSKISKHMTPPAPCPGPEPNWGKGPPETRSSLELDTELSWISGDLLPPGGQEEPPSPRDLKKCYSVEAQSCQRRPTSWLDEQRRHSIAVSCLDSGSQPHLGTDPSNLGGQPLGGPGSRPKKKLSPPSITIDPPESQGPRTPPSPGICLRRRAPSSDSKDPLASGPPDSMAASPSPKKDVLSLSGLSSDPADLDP

Q: For `CC(C)(C)NC(=O)CN1CC2(CN(CC(=O)Nc3cc(Cl)cc(Cl)c3)C2)C1` [Example 1, N-(tert-butyl)-2-(6-(2-((3,5-dichlorophenyl)amino)-2-oxoethyl)-2,6-diazaspiro[3.3]heptan-2-yl)acetamide], which IC50 is on record?
A: < 1000 nM

Q: `COc1cc(F)cc(NC(=O)CN2CC3(C2)CN(CC(=O)NC(C)(C)C)C3)c1` [Example 2] was tested. Which IC50 did it give?
A: 1000 to 10000 nM

Q: Which IC50 does the source give for `CC(C)(C)NC(=O)CN1CC2(CN(CC(=O)Nc3cc(F)cc(C(F)F)c3)C2)C1` [Example 3] here?
A: 1000 to 10000 nM

Q: Which IC50 does the source give for `Cc1cc(F)cc(NC(=O)CN2CC3(C2)CN(CC(=O)NC(C)(C)C)C3)c1` [Example 4] here?
A: 1000 to 10000 nM

Q: With `CC(C)(C)NC(=O)CN1CC2(CN(CC(=O)Nc3ccc(F)c(Cl)c3)C2)C1` [Example 5] as the compound, how does the IC50 read?
A: 1000 to 10000 nM

Q: For `CC(C)(C)NC(=O)CN1CC2(CN(CC(=O)Nc3cccc(Cl)c3)C2)C1` [Example 6], which IC50 is on record?
A: 1000 to 10000 nM

Q: How did the IC50 turn out when `Cc1cc(NC(=O)CN2CC3(C2)CN(CC(=O)NC(C)(C)C)C3)nn1-c1ccccc1` [Example 7] was run?
A: ≥ 10000 nM

Q: Which IC50 does the source give for `CC(C)(C)NC(=O)CN1CC2(CN(CC(=O)Nc3cccc(Cl)c3F)C2)C1` [Example 8] here?
A: ≥ 10000 nM

same assay, conditions: Table 2, HEK-293 natClytin/TASK1+Cav3.1 cells

Q: Which IC50 does the source give for `CC(C)(C)NC(=O)CN1CC2(C1)CN(Cc1nc3cc(F)cc(Cl)c3[nH]1)C2` [Example 9, N-(tert-butyl)-2-(6-((7-chloro-5-fluoro-1H-benzo[d]imidazol-2-yl)methyl)-2,6-diazaspiro[3.3]heptan-2-yl)acetamide] here?
A: < 1000 nM

Q: With `CCC(C)(C)NC(=O)CN1CC2(CN(CC(=O)Nc3cc(F)cc(Cl)c3)C2)C1` [Example 10, N-(3-chloro-5-fluoro-phenyl)-2-[2-[2-(1,1-dimethylpropylamino)-2-oxo-ethyl]-2,6-diazaspiro[3.3]heptan-6-yl]acetamide] as the compound, how does the IC50 read?
A: < 1000 nM

Q: Which IC50 does the source give for `CC(C)(C)NC(=O)CN1CC2(CN(CC(=O)Nc3cc(F)cc(Cl)c3)C2)C1` [Example 11] here?
A: < 1000 nM

Q: With `CC(C)(C)NC(=O)CN1CC2(C1)CN(CC(=O)NC13CC4CC(CC(C4)C1)C3)C2` [Example 12] as the compound, how does the IC50 read?
A: 1000 to 10000 nM

Q: With `CC(C)(C)c1nc(CN2CC3(CN(CC(=O)Nc4cc(F)cc(Cl)c4)C3)C2)co1` [Example 13] as the compound, how does the IC50 read?
A: < 1000 nM

Q: Which IC50 does the source give for `CC1(NC(=O)CN2CC3(CN(CC(=O)Nc4cc(F)cc(Cl)c4)C3)C2)CCC1` [Example 14] here?
A: < 1000 nM

Q: For `O=C(CN1CC2(C1)CN(Cc1coc(-c3ccccc3)n1)C2)Nc1cc(F)cc(Cl)c1` [Example 15], which IC50 is on record?
A: < 1000 nM

Q: With `O=C(CN1CC2(C1)CN(CC(=O)NC1CCCC1)C2)Nc1cc(F)cc(Cl)c1` [Example 16] as the compound, how does the IC50 read?
A: 1000 to 10000 nM

Q: How did the IC50 turn out when `CC(C)(NC(=O)CN1CC2(CN(CC(=O)Nc3cc(F)cc(Cl)c3)C2)C1)C(F)(F)F` [Example 17] was run?
A: 1000 to 10000 nM

Q: `O=C(CN1CC2(C1)CN(Cc1nc3ccccc3[nH]1)C2)Nc1cc(F)cc(Cl)c1` [Example 18] was tested. Which IC50 did it give?
A: < 1000 nM

Q: `CC(C)(C)c1coc(CN2CC3(CN(CC(=O)Nc4cc(F)cc(Cl)c4)C3)C2)n1` [Example 19] was tested. Which IC50 did it give?
A: 1000 to 10000 nM

Q: How did the IC50 turn out when `O=C(CN1CC2(CN(CCC3CCCC3)C2)C1)Nc1cc(F)cc(Cl)c1` [Example 20] was run?
A: < 1000 nM

Q: How did the IC50 turn out when `CC(C)(C)CCN1CC2(C1)CN(CC(=O)Nc1cc(F)cc(Cl)c1)C2` [Example 21] was run?
A: < 1000 nM

Q: How did the IC50 turn out when `Cc1nc(CN2CC3(CN(CC(=O)Nc4cc(F)cc(Cl)c4)C3)C2)co1` [Example 22] was run?
A: 1000 to 10000 nM

Q: With `O=C(CN1CC2(C1)CN(Cc1cnc(-c3ccccc3)[nH]1)C2)Nc1cc(F)cc(Cl)c1` [Example 23] as the compound, how does the IC50 read?
A: < 1000 nM

Q: For `COc1cccc(CN2CC3(CN(CC(=O)Nc4cc(F)cc(Cl)c4)C3)C2)c1` [Example 24], which IC50 is on record?
A: 1000 to 10000 nM

Q: For `O=C(CN1CC2(C1)CN(Cc1cccc(Cl)c1)C2)Nc1cc(F)cc(Cl)c1` [Example 25], which IC50 is on record?
A: < 1000 nM

Q: Which IC50 does the source give for `O=C(CN1CC2(CN(CCC3CCC(F)(F)CC3)C2)C1)Nc1cc(F)cc(Cl)c1` [Example 26] here?
A: < 1000 nM

Q: With `O=C(CN1CC2(C1)CN(Cc1cccc(C(F)F)c1)C2)Nc1cc(F)cc(Cl)c1` [Example 27] as the compound, how does the IC50 read?
A: < 1000 nM

Q: For `O=C(CN1CC2(C1)CN(Cc1nc(-c3ccccc3)co1)C2)Nc1cc(F)cc(Cl)c1` [Example 28], which IC50 is on record?
A: 1000 to 10000 nM

Q: With `CC(C)(C)c1ncc(CN2CC3(CN(CC(=O)Nc4cc(F)cc(Cl)c4)C3)C2)[nH]1` [Example 29] as the compound, how does the IC50 read?
A: 1000 to 10000 nM

Q: For `Cc1coc(CN2CC3(CN(CC(=O)Nc4cc(F)cc(Cl)c4)C3)C2)n1` [Example 30], which IC50 is on record?
A: 1000 to 10000 nM

Q: With `CC(C)(NC(=O)CN1CC2(C1)CN(Cc1nc3c(Cl)cc(F)cc3[nH]1)C2)C(F)(F)F` [Example 31] as the compound, how does the IC50 read?
A: < 1000 nM

Q: How did the IC50 turn out when `CCC(C)(C)NC(=O)CN1CC2(C1)CN(Cc1nc3c(Cl)cc(F)cc3[nH]1)C2` [Example 32] was run?
A: < 1000 nM

Q: With `CC(C)(C)CCN1CC2(C1)CN(Cc1nc3c(Cl)cc(F)cc3[nH]1)C2` [Example 33] as the compound, how does the IC50 read?
A: < 1000 nM

Q: With `Fc1cc(Cl)c2nc(CN3CC4(CN(CCC5CCCC5)C4)C3)[nH]c2c1` [Example 34] as the compound, how does the IC50 read?
A: < 1000 nM

Q: For `CC(C)(C)CCCN1CC2(C1)CN(Cc1nc3c(Cl)cc(F)cc3[nH]1)C2` [Example 35], which IC50 is on record?
A: < 1000 nM

Q: How did the IC50 turn out when `Fc1cc(Cl)c2nc(CN3CC4(C3)CN(CC3CCC(F)(F)CC3)C4)[nH]c2c1` [Example 36] was run?
A: < 1000 nM

Q: With `Cc1cccc2[nH]c(CN3CC4(CN(CC(=O)NC(C)(C)C)C4)C3)nc12` [Example 37] as the compound, how does the IC50 read?
A: 1000 to 10000 nM

Q: With `Cc1cc(F)cc2[nH]c(CN3CC4(CN(CC(=O)NC(C)(C)C)C4)C3)nc12` [Example 38] as the compound, how does the IC50 read?
A: 1000 to 10000 nM

Q: Which IC50 does the source give for `CC(C)(C)NC(=O)CN1CC2(C1)CN(Cc1nc3c(Cl)cc(Cl)cc3[nH]1)C2` [Example 39] here?
A: < 1000 nM

Q: Which IC50 does the source give for `CC(C)(C)NC(=O)CN1CC2(C1)CN(Cc1nc3c(F)cc(OC(F)F)cc3[nH]1)C2` [Example 40] here?
A: 1000 to 10000 nM

Q: For `CC(C)(C)NC(=O)CN1CC2(CN(CC(=O)Nc3cc(F)cc(OC(F)F)c3)C2)C1` [Example 41], which IC50 is on record?
A: 1000 to 10000 nM

Q: `CC(C)(C)NC(=O)CN1CC2(C1)CN(C(=O)Nc1cc(F)cc(Cl)c1)C2` [Example 43] was tested. Which IC50 did it give?
A: < 1000 nM
